Converted amounts (≈) assume the structure as drawn. Starred links: 1 amine or outer side, 2 acyl side, 3 side chain; linkers in the order of their positions; H or OH if unused. Non-standard residues stand in square brackets, D forms with d. Residues, ends and D or L forms follow the SMILES beside them. X2 = C[C@@H]1CC(O)O[C@H]1[C@H](C(=O)[*:2])N(C)[*:1]; X1 = C[C@@H]1CCO[C@H]1[C@H](C(=O)[*:2])N(C)[*:1]; NMeL = CN[C@@H](CC(C)C)C(=O)O; dNMeL = CN[C@H](CC(C)C)C(=O)O; dNMeV = CN[C@@H](C(=O)O)C(C)C; dNMeA = CN[C@H](C)C(=O)O
Assays:
[1] = target: T1, Human recombinant cyclophilin A (CypA) (Homo sapiens, UniProt P62937); assay: Protease-free PPIase assay, cyclophilin A; assay type: biochemical; conditions: human recombinant CypA, 10 °C, SUC-AAPF-pNA substrate; read-out: CypA Protease-free PPIase Assay Ki
T1 construct: purchased Sigma C3805
Experimental: (§1) Protease-Free PPIase Assay The protease-free PPIase assay measures the rate of cis to trans conversion of a peptide substrate catalyzed by the enzyme cyclophilin A or D. Addition of a cyclophilin inhibitor (e.g., a test compound) slows the catalyzed rate and a Ki value is obtained. 35 mM HEPES pH 7.8, filtered through a 0.2 μm filter. 50 μM DTT was added prior to use each day and then the buffer was stored on ice. […] Human recombinant 6-His tagged cyclophilin D (CypD), prepared by the University of Edinburgh, was used to generate CypD inhibition data. Succinimide-[…]-nitroanilide (SUC-AAPF-pNA) (from Bachem AG, L-1400), 20 mg/ml prepared in 0.5 M LiCl in trifluoroethanol. All readings were taken with an Agilent 8453 Spectrophotometer which consisted of a cuvette holder, stirrer and chiller to maintain a stirred cuvette temperature of 10.0±0.1° C. The temperature was monitored by the use of temperature probe. […] The inhibitor was diluted in 100% DMSO, and then added to the assay to a maximum final concentration of 0.5% DMSO in the assay. […] The absorbance was measured at 330 nm for 300 s or 500 s for blank runs (NOTE: the substrate was added in one quick injection and the measurements started immediately to minimize mixing errors). A first order rate equation was fitted to the absorbance data, for each concentration of inhibitor, to obtain the rate constant (the first 10 to 15 seconds were excluded, as mixing causes errors in this portion of the curve). The catalytic rate was calculated from the enzymatic rate constant minus the background rate constant. An exponential curve was generated using the catalytic rate constants versus the inhibitor concentration to obtain the Ki value for the inhibitor. The Ki value is indicative of the binding affinity between the test compound and cyclophilin A.

[2] = target: T2, Human recombinant 6-His tagged cyclophilin D (CypD) (Homo sapiens, UniProt P30405); assay: Protease-free PPIase assay, cyclophilin D; assay type: biochemical; conditions: human recombinant 6-His CypD, 10 °C, SUC-AAPF-pNA substrate; read-out: CypD Protease-free PPIase Assay Ki
T2 construct: 6-His
Experimental: as §1

[3] = target: T3, calcineurin (Homo sapiens, UniProt P62937+P63098+Q08209); assay: Calcineurin Phosphatase (CaN) Assay; assay type: biochemical; conditions: in the presence of CypA, 1:1 complex of inhibitor with CypA
T3 construct: purchased Enzo Life Sciences BML-AK804
Source text: Calcineurin Phosphatase (CaN) Assay
The calcineurin phosphatase assay is a means for estimating the immunosuppressive potential of a test compound. Calcineurin is a serine-threonine protein phosphatase that on activation dephosphorylates members of the nuclear factor of activated T cells (NFAT), which are important in T lymphocyte activation.
To investigate the immunosuppressive potential of exemplary compounds of Formula I, which are cyclosporin analogs, their ability to inhibit calcineurin activity was measured in the presence and absence of CypA.
The CaN assay kit used is based on a colorimetric assay for measuring calcineurin phosphatase activity, and it is commercially available (Enzo Life Sciences and Calbiochem). Calmodulin is also required for calcineurin activity, and RII phosphopeptide is used as an efficient peptide substrate for calcineurin. […] The detection of free phosphate released is based on the classic Malachite green assay.
Enzo Life Sciences CaN Assay Kit: BML-AK804
For samples ‘without CypA’, a 4-point dilution series of the inhibitor was prepared in duplicate to obtain a final assay concentration of 10, 1, 0.1 and 0.01 μM. For samples ‘with CypA’, a 7-point dilution series was prepared to obtain a 1:1 complex of the inhibitor with CypA; the inhibitor and CypA final assay concentrations of 10, 3.33, 1.11, 0.37, 0.12, 0.04, 0.014 μM were prepared.
using the half area 96 well plates supplied with the kit, 10 μl UPW was added to duplicate wells to provide the non-inhibited control. 10 μl of the inhibitor or the inhibitor/CypA complex was added to the appropriate sample wells. 25 μl of the 2× assay buffer with calmodulin (CaM) was added to all wells, then 5 μl of calcineurin phosphatase (CaN) was added to all wells (40 U per well final concentration) except duplicate ‘no calcineurin blank’ wells to which 5 μL 1× assay buffer was added. The assay plate was placed in an oven at 30° C. for 15 minutes to equilibrate to the reaction temperature. The reaction was started by the addition of 10 μl RII-peptide (0.15 mM final concentration). The reaction was allowed to proceed at 30° C. for a time period in which the reaction is linear for about 60 minutes. The reaction was then terminated by adding 100 μl of the Malachite Green reagent. The color was allowed to develop for 15-30 minutes at room temperature before the absorbance at 620 nm was measured using a plate reader (Molecular Devices—SpectraMax M5). The data were analyzed by subtracting ‘no calcineurin blank’ from all the absorbance readings and plotting the background corrected absorbances against Log10 inhibitor concentration. A sigmoidal-dose response curve was fitted to the data using GraphPad Prism Software.
It exerts its immunosuppressive activity by binding to CypA to form a complex, which then binds to calcineurin and thereby inhibits calcineurin activity.

[4] = physchem; conditions: 25 °C, pH 7.4, aqueous buffer, kinetic from dmso stock
Experimental: The aqueous solubility of a compound of Formula I in buffer (pH 7.8) was measured by recording the onset of precipitation of the compound as a function of increasing concentration. The onset of precipitation, if it occurred, was detected by an increase in absorbance at 650 nm.
Stock solutions of Control and Test Compounds: 10 mM in 100% DMSO.
10 mM stock solutions of control and test compounds were prepared in 100% DMSO.
Assay buffer (247.5 μl) was placed into a flat bottomed transparent 96-well plate. For blank samples, DMSO (2.5 μl) was added. For test and control samples, 2.5 μl of the appropriate DMSO dilution stocks were added to the appropriate well. All test and control compounds were performed in triplicate.
The plates were sealed with adhesive plate seal and shaken at 250 rpm at 25° C. for 18 h on a plate shaker. After incubation, the plate seals were taken off and any bubbles observed in wells removed. The plates were read on a SpectraMaxM5 with a 5 s pre-shake at 650 nm.
Data files were transferred to the appropriate worksheet and the solubility range of the compounds was calculated from the data.

T2 sequence (P30405 30-207): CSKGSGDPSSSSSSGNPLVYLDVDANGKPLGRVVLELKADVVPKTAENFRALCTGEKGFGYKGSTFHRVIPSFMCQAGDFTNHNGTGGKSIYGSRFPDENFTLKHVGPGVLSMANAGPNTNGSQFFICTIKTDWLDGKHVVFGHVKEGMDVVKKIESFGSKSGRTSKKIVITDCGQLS
T1 sequence (P62937 whole entry): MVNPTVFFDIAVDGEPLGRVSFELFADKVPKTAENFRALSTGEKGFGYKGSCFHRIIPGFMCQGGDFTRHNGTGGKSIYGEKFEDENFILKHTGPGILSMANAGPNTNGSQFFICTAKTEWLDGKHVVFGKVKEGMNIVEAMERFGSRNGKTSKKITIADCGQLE

SMILES	Ki [1] [µM]	Ki [2] [µM]	IC50 [3] [µM]	solubility at 18 h [4] [µM]
CC(C)C[C@@H]1C(=O)N(C)[C@H](CC(C)C)C(=O)N(C)[C@H](C(C)C)C(=O)N(C)[C@H]([C@@H]2OCC[C@H]2C)C(=O)N[C@H](C(C)C)C(=O)N(C)[C@H](C)C(=O)N(C)[C@@H](CC(C)C)C(=O)N[C@H](C(C)C)C(=O)N(C)[C@H](CC(C)C)C(=O)N[C@H](C)C(=O)N[C@@H](C)C(=O)N1C [Compound 6, [(2S)-2-(methylamino)-2-[(2R,3R)-3-methyltetrahydrofuran-2-yl]acetic acid]^1 [(R)-methyl-Sar]^3 cyclosporin D] (cyclo(A[dNMeL][dNMeL][dNMeV][X1][dV][dNMeA][NMeL][dV][dNMeL][dA]))	0.0056	0.0019	> 10	50 (≈ 60.1 µg/mL)
CC[C@H]1NC(=O)[C@H]([C@@H]2[C@H](C)CCN2C)N(C)C(=O)[C@@H](C(C)C)N(C)C(=O)[C@@H](CC(C)C)N(C)C(=O)[C@@H](CC(C)C)N(C)C(=O)[C@H](C)NC(=O)[C@@H](C)NC(=O)[C@@H](CC(C)C)N(C)C(=O)[C@@H](C(C)C)NC(=O)[C@H](CC(C)C)N(C)C(=O)[C@@H](C)N(C)C1=O [Compound 19, [(2S)-2-[(2S,3R)-1,3-dimethylpyrrolidin-2-yl]-2-(methylamino)acetic acid]^1 [(R)-methyl-Sar]^3 cyclosporin A]	0.404	0.13	8.99	> 100
CC(C)C[C@@H]1C(=O)N(C)[C@H](CC(C)C)C(=O)N(C)[C@H](C(C)C)C(=O)N(C)[C@H]([C@@H]2OCC[C@H]2C)C(=O)N[C@H](C(C)C)C(=O)N(C)CC(=O)N(C)[C@@H](CC(C)C)C(=O)N[C@H](C(C)C)C(=O)N(C)[C@H](CC(C)C)C(=O)N[C@H](C)C(=O)N[C@@H](C)C(=O)N1C [Compound 7, [(2S)-2-(methylamino)-2-[(2R,3R)-3-methyltetrahydrofuran-2-yl]acetic acid]^1 cyclosporin D]	0.4	0.081	> 10	75 (≈ 89.1 µg/mL)
CC(C)C[C@@H]1C(=O)N(C)[C@H](CC(C)C)C(=O)N(C)[C@H](C(C)C)C(=O)N(C)[C@H]([C@@H]2OC(O)C[C@H]2C)C(=O)N[C@H](C(C)C)C(=O)N(C)[C@H](C)C(=O)N(C)[C@@H](CC(C)C)C(=O)N[C@H](C(C)C)C(=O)N(C)[C@H](CC(C)C)C(=O)N[C@H](C)C(=O)N[C@@H](C)C(=O)N1C (stereo partly drawn) [Compound 14, [(2S)-2-[(2R,3R)-5-Hydroxy-3-methyl-tetrahydrofuran-2-yl]-2-(methylamino)acetic acid]^1 [(R)-methyl-Sar]^3 cyclosporin D] (cyclo(A[dNMeL][dNMeL][dNMeV][X2][dV][dNMeA][NMeL][dV][dNMeL][dA]))	0.0204	0.0084	> 10	> 100
CC(C)C[C@@H]1C(=O)N(C)[C@H](CC(C)C)C(=O)N(C)[C@H](C(C)C)C(=O)N(C)[C@H]([C@@H]2OCC[C@H]2C)C(=O)N[C@H]([C@@H](C)O)C(=O)N(C)CC(=O)N(C)[C@@H](CC(C)C)C(=O)N[C@H](C(C)C)C(=O)N(C)[C@H](CC(C)C)C(=O)N[C@H](C)C(=O)N[C@@H](C)C(=O)N1C [Compound 8, [(2S)-2-(methylamino)-2-[(2R,3R)-3-methyltetrahydrofuran-2-yl]acetic acid]^1 cyclosporin C]	1.5	0.105	> 10	> 100
CC[C@H]1NC(=O)[C@H]([C@H]2NCC[C@H]2C)N(C)C(=O)[C@@H](C(C)C)N(C)C(=O)[C@@H](CC(C)C)N(C)C(=O)[C@@H](CC(C)C)N(C)C(=O)[C@H](C)NC(=O)[C@@H](C)NC(=O)[C@@H](CC(C)C)N(C)C(=O)[C@@H](C(C)C)NC(=O)[C@H](CC(C)C)N(C)C(=O)[C@@H](C)N(C)C1=O [Compound 20, [(2S)-2-(methylamino)-2-[(2S,3R)-3-methylpyrrolidin-2-yl]acetic acid]^1 [(R)-methyl-Sar]^3 cyclosporin A]	0.149	0.036	> 10	> 100

More lines, now with the values ahead:

Ki [1] [µM]	Ki [2] [µM]	IC50 [3] [µM]	solubility at 18 h [4] [µM]	SMILES
0.198	0.0145	> 10	50 (≈ 61.2 µg/mL)	CC[C@H]1NC(=O)[C@@H]([C@@H]2OCC[C@H]2C)N(C)C(=O)[C@@H](C(C)C)N(C)C(=O)[C@@H](CC(C)C)N(C)C(=O)[C@@H](CC(C)C)N(C)C(=O)[C@H](C)NC(=O)[C@@H](C)NC(=O)[C@@H](CC(C)C)N(C)C(=O)[C@@H](C(C)C)NC(=O)[C@H](CC(C)C)N(C)C(=O)[C@@H](C(F)F)N(C)C1=O [Compound 5, [(2S)-2-(methylamino)-2-[(2R,3R)-3-methyltetrahydrofuran-2-yl]acetic acid]^1 [(S)-difluoromethyl-Sar]^3 cyclosporin A]
0.079	0.015	> 10	25 (≈ 29.7 µg/mL)	CC[C@H]1NC(=O)[C@H]([C@H]2OCC[C@H]2C)N(C)C(=O)[C@@H](C(C)C)N(C)C(=O)[C@@H](CC(C)C)N(C)C(=O)[C@@H](CC(C)C)N(C)C(=O)[C@H](C)NC(=O)[C@@H](C)NC(=O)[C@@H](CC(C)C)N(C)C(=O)[C@@H](C(C)C)NC(=O)[C@H](CC(C)C)N(C)C(=O)[C@@H](C)N(C)C1=O [Compound 18, [(2S)-2-(methylamino)-2-[(2S,3R)-3-methyltetrahydrofuran-2-yl]acetic acid]^1 [(R)-methyl-Sar]^3 cyclosporin A]
0.081	0.0097	> 10	75 (≈ 90.2 µg/mL)	CC[C@@H]1C(=O)N(C)[C@@H](CC(C)C)C(=O)N[C@H](C(C)C)C(=O)N(C)[C@H](CC(C)C)C(=O)N[C@H](C)C(=O)N[C@@H](C)C(=O)N(C)[C@H](CC(C)C)C(=O)N(C)[C@H](CC(C)C)C(=O)N(C)[C@H](C(C)C)C(=O)N(C)[C@H]([C@@H]2OCC[C@H]2C)C(=O)N[C@H](CC)C(=O)N1C [Compound 1, [(2S)-2-(methylamino)-2-[(2R,3R)-3-methyltetrahydrofuran-2-yl]acetic acid]^1 [(R)-ethyl-Sar]^3 cyclosporin A]
0.237	0.039	> 10	50 (≈ 60.8 µg/mL)	CCC[C@@H]1C(=O)N(C)[C@@H](CC(C)C)C(=O)N[C@H](C(C)C)C(=O)N(C)[C@H](CC(C)C)C(=O)N[C@H](C)C(=O)N[C@@H](C)C(=O)N(C)[C@H](CC(C)C)C(=O)N(C)[C@H](CC(C)C)C(=O)N(C)[C@H](C(C)C)C(=O)N(C)[C@H]([C@@H]2OCC[C@H]2C)C(=O)N[C@H](CC)C(=O)N1C [Compound 2, [(2S)-2-(methylamino)-2-[(2R,3R)-3-methyltetrahydrofuran-2-yl]acetic acid]^1 [(R)-propyl-Sar]^3 cyclosporin A]

Reference: patent publication US9914755B2, “Cyclosporin derivatives wherein the MeBmt sidechain has been cyclized” (Allergan, Inc., priority 2015, dated 2018)
